Experimental findings from ChEMBL document CHEMBL3217722, “Synthesis of hybrid 4-anilinoquinoline triazines as potent antimalarial agents, their in silico modeling and bioevaluation as Plasmodium falciparumtransketolase and -hematin inhibitors” (Medchemcomm, 2012) are described below.

Data set [1] concerns Plasmodium falciparum. Put plainly: Antiplasmodial activity against chloroquine-sensitive Plasmodium falciparum 3D7 after 72 hrs by SYBR Green-1 dye-based fluorescence assay. The settings on record: 3D7, 72 h. The class given is functional, organism-based.
The subject of data set [2] is Plasmodium falciparum. Put plainly: Antiplasmodial activity against chloroquine-resistant Plasmodium falciparum K1 after 72 hrs by SYBR Green-1 dye-based fluorescence assay. The class given is functional, organism-based. As to conditions: K1, 72 h.
A short description of data set [3]: Selectivity index, ratio of IC50 for African green monkey Vero cells to IC50 for Plasmodium falciparum. The class given is toxicity, cell-based. The settings on record: read-out: Ratio IC50.
In data set [4] the test system is Plasmodium yoelii. Put plainly: Inhibition of beta-hematin formation in Plasmodium yoelii infected Swiss mouse plasma after 16 hrs. In kind it is functional.
Data set [5] concerns Plasmodium yoelii. Put plainly: Antimalarial activity against chloroquine-resistant Plasmodium yoelii N-67 infected in Swiss mouse assessed as inhibition of parasitemia at 50 mg/kg, po qd for 4 days relative to control. The class given is functional. As to conditions: N-67, 96 h.
Data set [6] relates to Plasmodium yoelii. Description: Antimalarial activity against chloroquine-resistant Plasmodium yoelii N-67 infected in Swiss mouse assessed as inhibition of parasitemia at 100 mg/kg, po qd for 4 days relative to control. In kind it is functional. As to conditions: N-67, 96 h.
Data set [7] deals with Plasmodium yoelii. Put plainly: Antimalarial activity against chloroquine-resistant Plasmodium yoelii N-67 infected in Swiss mouse assessed as mouse survival at 100 mg/kg, po qd for 4 days measured on day 28. In kind it is functional, organism-based. On the set-up: dose 100 mg/kg.
For data set [8], the system named is Plasmodium yoelii. Description: Antimalarial activity against chloroquine-resistant Plasmodium yoelii N-67 infected in Swiss mouse assessed as mouse survival at 50 mg/kg, po qd for 4 days measured on day 28. Also noted: dose 50 mg/kg. The class given is functional, organism-based.
Data set [9] in a line: Inhibition of Plasmodium falciparum transketolase using fructose-6-phosphate as substrate by spectrophotometric analysis.

The structures appear in SMILES notation. pIC50: −log10 of the molar value. Values after ≈ are worked out from the molar mass of the structure shown. Active and inactive are the calls of the source. The rule behind the calls is not given here.

As to `CCN1CCN(c2nc(Nc3ccc(Nc4ccnc5cc(Cl)ccc45)cc3)nc(N3CCOCC3)n2)CC1`, the half-maximal inhibitory concentration (IC50) came to 0.00216 mg/L (≈ 0.00396 µM) in [1], 0.0147 mg/L (≈ 0.0269 µM) in data set [2] and 4.17 mg/L (≈ 7.64 µM) in data set [4]. The selectivity ratio in data set [3] came to 431. In addition, the inhibition in vivo at 50 mg/kg in data set [5] is 93.5%. Also, the inhibition in vivo at 100 mg/kg in data set [6] turned out to be 100%. The outcome in [7] and in [8] was inactive.

For `CN1CCN(c2nc(Nc3ccc(Cl)cc3)nc(Nc3ccc(Nc4ccnc5cc(Cl)ccc45)cc3)n2)CC1`, the IC50 was found to be 0.0078 mg/L (≈ 0.0136 µM) in data set [1], 0.0352 mg/L (≈ 0.0614 µM) in data set [2] and 2.17 mg/L (≈ 3.79 µM) in data set [4]. Further, the selectivity ratio in data set [3] came out at 66.7. Also, the inhibition in vivo at 100 mg/kg in [6] came to 100%. In addition, the outcome in data set [7] was inactive.

As for `CN1CCN(c2nc(Nc3ccc(F)cc3)nc(Nc3ccc(Nc4ccnc5cc(Cl)ccc45)cc3)n2)CC1`, the concentration for half-maximal inhibition (IC50) in data set [1] turned out to be 0.00897 mg/L (≈ 0.0161 µM); in data set [2], 0.00206 mg/L (≈ 0.0037 µM); in data set [4], 2.08 mg/L (≈ 3.74 µM). For the same molecule, the selectivity ratio in data set [3] is 122. Besides, in [6], the inhibition in vivo at 100 mg/kg worked out at 100%. Moreover, in data set [7], the result was inactive.

For the molecule `Fc1cccc(Nc2nc(NCCCN3CCOCC3)nc(Nc3ccc(Nc4ccnc5cc(Cl)ccc45)cc3)n2)c1`, the results for the concentration for half-maximal inhibition (IC50) in data set [1], in data set [2] and in data set [4] were 0.00136 mg/L (≈ 0.00227 µM), 0.00571 mg/L (≈ 0.00952 µM) and 2.06 mg/L (≈ 3.43 µM), respectively. Moreover, in [3], the selectivity ratio was 551. This molecule also gave a pIC50 in data set [9] of 4.12. In addition, the inhibition in vivo at 100 mg/kg in [6] is 100%. In addition, in data set [7], the result was inactive.

For `Fc1ccc(Nc2nc(NCCN3CCOCC3)nc(Nc3ccc(Nc4ccnc5cc(Cl)ccc45)cc3)n2)cc1`, the results for the IC50 in data set [1], in [2] and in data set [4] were 0.00981 mg/L (≈ 0.0167 µM), 0.0954 mg/L (≈ 0.163 µM) and 2.38 mg/L (≈ 4.06 µM), respectively. The selectivity ratio in [3] came out at 1330. Also, in data set [6], the inhibition in vivo at 100 mg/kg turned out to be 100%. Moreover, the result in [7] was inactive.

On to `Clc1ccc2c(Nc3ccc(Nc4nc(NCCCN5CCOCC5)nc(N5CCOCC5)n4)cc3)ccnc2c1`, for which the values for the IC50 in data set [1], in data set [2] and in data set [4] were 0.00276 mg/L (≈ 0.00479 µM), 0.00266 mg/L (≈ 0.00462 µM) and 2.98 mg/L (≈ 5.17 µM), respectively. In addition, the selectivity ratio in data set [3] came to 3320. The inhibition in vivo at 50 mg/kg in data set [5] was 98.4%. Also, in [6], the inhibition in vivo at 100 mg/kg amounted to 100%. For the same molecule, in data set [8], the result was inactive.

With `CCN1CCN(c2nc(Nc3ccc(Nc4ccnc5cc(Cl)ccc45)cc3)nc(N3CCCc4ccccc43)n2)CC1`, the half-maximal inhibitory concentration (IC50) was determined as 0.0208 mg/L (≈ 0.0352 µM) in [1], 0.0116 mg/L (≈ 0.0197 µM) in data set [2] and 6.55 mg/L (≈ 11.1 µM) in [4]. Besides, the selectivity ratio in data set [3] was 36. Besides, in data set [5], the inhibition in vivo at 50 mg/kg was 77.8%. Also, the inhibition in vivo at 100 mg/kg in data set [6] stood at 99%. The result in [7] and in data set [8] was inactive.

In the case of `CN1CCN(c2nc(Nc3ccc(Nc4ccnc5cc(Cl)ccc45)cc3)nc(Nc3cccc(F)c3)n2)CC1`, the values for the IC50 in data set [1], in data set [2] and in data set [4] were 0.0228 mg/L (≈ 0.041 µM), 0.00154 mg/L (≈ 0.00277 µM) and 3.03 mg/L (≈ 5.45 µM), respectively. In addition, the selectivity ratio in data set [3] worked out at 55.3. Also, the inhibition in vivo at 50 mg/kg in data set [5] was determined as 99.8%. The inhibition in vivo at 100 mg/kg in data set [6] stood at 100%. For the same molecule, the result in [7] and in [8] was inactive.

Regarding `COc1ccc(Nc2nc(NCCCN3CCOCC3)nc(Nc3ccc(Nc4ccnc5cc(Cl)ccc45)cc3)n2)cc1`, the IC50 in data set [1] turned out to be 0.00381 mg/L (≈ 0.00622 µM); in [2], 0.155 mg/L (≈ 0.253 µM); in [4], 2.34 mg/L (≈ 3.82 µM). Besides, the selectivity ratio in data set [3] came out at 1310. The molecule further gave a negative logarithm of the IC50 (pIC50) in data set [9] of 4.14.
